IC50 data for 19 compounds are collected here from patent US9024017B2, “Octahydro-cyclopentapyrrolyl antagonists of CCR2” (Janssen Pharmaceutica NV, priority 2012, dated 2015).

As a reminder, the IC50 is the concentration at which inhibition is half-maximal.

T1 sequence (P41597 whole entry): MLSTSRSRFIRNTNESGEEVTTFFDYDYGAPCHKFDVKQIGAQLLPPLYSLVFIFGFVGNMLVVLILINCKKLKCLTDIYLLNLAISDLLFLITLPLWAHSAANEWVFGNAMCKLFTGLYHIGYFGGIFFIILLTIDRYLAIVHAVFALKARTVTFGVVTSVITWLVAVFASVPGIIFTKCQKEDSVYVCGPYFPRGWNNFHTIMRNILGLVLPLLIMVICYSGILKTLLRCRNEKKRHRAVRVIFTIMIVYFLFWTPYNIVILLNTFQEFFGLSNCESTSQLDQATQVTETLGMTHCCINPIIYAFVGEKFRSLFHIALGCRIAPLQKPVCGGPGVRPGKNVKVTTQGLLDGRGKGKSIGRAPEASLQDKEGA

This assay concerns the target T1, CCR2 (Homo sapiens, UniProt P41597).
T1 construct: host or cells: THP-1 (human monocytic cell line)
As to the kind of experiment: MCP-1 Receptor Binding Assay in THP-1 Cells. Particulars: read-out: MCP1B_v3 IC50. The method, boiled down: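 Human monocytic THP-1 cells incubated 2 h at 30 °C with 0.5 nM 125I-MCP-1 and varying concentrations of test compound or unlabelled MCP-1. Cells filter-harvested and counted by scintillation; blank subtracted, compared with vehicle; nonspecific binding with 1 μM cold MCP-1.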
`COC1COCCC1N[C@@H]1C[C@H]2CN(C(=O)OCCN(C)C)C[C@@]2(C(=O)N2CCc3ncc(C(F)(F)F)cc3C2)C1` (relative stereo) [Example 54, (3aR,5R,6aR)-2-(Dimethylamino)ethyl 5-(((3S*,4S*)-3-methoxytetrahydro-2H-pyran-4-yl)amino)-3a-(3-(trifluoromethyl)-5,6,7,8-tetrahydro-1,6-naphthyridine-6-carbonyl)-hexahydrocyclopenta[c]pyrrole-2(1H)-carboxylate]: the IC50 came out at 150 nM.

With `COC1COCCC1N[C@@H]1C[C@H]2CN(C(=O)OCCNC(C)=O)C[C@@]2(C(=O)N2CCc3ccc(C(F)(F)F)cc3C2)C1` (relative stereo) [Example 55, (3aR,5R,6aR)-2-Acetamidoethyl 5-(((3S*,4S*)-3-methoxytetrahydro-2H-pyran-4-yl)amino)-3a-(7-(trifluoromethyl)-1,2,3,4-tetrahydroisoquinoline-2-carbonyl)hexahydrocyclopenta[c]pyrrole-2(1H)-carboxylate], the IC50 amounted to 10 nM.

With `COC1COCCC1N[C@@H]1C[C@H]2CN(C(=O)OCc3ccccc3)C[C@@]2(C(=O)N2CCc3ncc(C(F)(F)F)cc3C2)C1` (relative stereo) [Example 56, (3aR,5R,6aR)-Benzyl 5-(((3S*,4S*)-3-methoxytetrahydro-2H-pyran-4-yl)amino)-3a-(3-(trifluoromethyl)-5,6,7,8-tetrahydro-1,6-naphthyridine-6-carbonyl)hexahydrocyclopenta[c]pyrrole-2(1H)-carboxylate], the IC50 amounted to 120 nM.

Consider `CNC(=S)N(C1CCOCC1OC)[C@@H]1C[C@H]2CN(C(=O)OCc3ccccc3)C[C@@]2(C(=O)N2CCc3ncc(C(F)(F)F)cc3C2)C1` (relative stereo) [Example 57, (3aR,5R,6aR)-Benzyl 5-(1-((3S*,4S*)-3-methoxytetrahydro-2H-pyran-4-yl)-3-methylthioureido)-3a-(3-(trifluoromethyl)-5,6,7,8-tetrahydro-1,6-naphthyridine-6-carbonyl)hexahydrocyclopenta[c]pyrrole-2(1H)-carboxylate], for which the IC50 was 2030 nM.

`COC1COCCC1N[C@@H]1C[C@H]2CN(C(=O)OCc3ccc(C#N)cc3)C[C@@]2(C(=O)N2CCc3ncc(C(F)(F)F)cc3C2)C1` (relative stereo) [Example 58, (3aR,5R,6aR)-4-Cyanobenzyl 5-(((3S*,4S*)-3-methoxytetrahydro-2H-pyran-4-yl)amino)-3a-(3-(trifluoromethyl)-5,6,7,8-tetrahydro-1,6-naphthyridine-6-carbonyl)hexahydrocyclopenta-[c]pyrrole-2(1H)-carboxylate]: the IC50 turned out to be 200 nM.

In the case of `COc1cccc(COC(=O)N2C[C@@H]3C[C@@H](NC4CCOCC4OC)C[C@]3(C(=O)N3CCc4ncc(C(F)(F)F)cc4C3)C2)c1` (relative stereo) [Example 60, (3aR,5R,6aR)-3-Methoxybenzyl 5-(((3S*,4S*)-3-methoxytetrahydro-2H-pyran-4-yl)amino)-3a-(3-(trifluoromethyl)-5,6,7,8-tetrahydro-1,6-naphthyridine-6-carbonyl)hexahydrocyclopenta-[c]pyrrole-2(1H)-carboxylate], the IC50 was 100 nM.

As to `COc1ccc(COC(=O)N2C[C@@H]3C[C@@H](NC4CCOCC4OC)C[C@]3(C(=O)N3CCc4ncc(C(F)(F)F)cc4C3)C2)cc1` (relative stereo) [Example 61, (3aR,5R,6aR)-4-Methoxybenzyl 5-(((3S*,4S*)-3-methoxytetrahydro-2H-pyran-4-yl)amino)-3a-(3-(trifluoromethyl)-5,6,7,8-tetrahydro-1,6-naphthyridine-6-carbonyl)hexahydrocyclopenta-[c]pyrrole-2(1H)-carboxylate], the IC50 worked out at 390 nM.

Turning to `COC1COCCC1N[C@@H]1C[C@H]2CN(C(=O)OCCC(C)(C)O)C[C@@]2(C(=O)N2CCc3ncc(C(F)(F)F)cc3C2)C1` (relative stereo) [Example 62, (3aR,5R,6aR)-3-Hydroxy-3-methylbutyl 5-(((3S*,4S*)-3-methoxytetrahydro-2H-pyran-4-yl)amino)-3a-(3-(trifluoromethyl)-5,6,7,8-tetrahydro-1,6-naphthyridine-6-carbonyl)-hexahydrocyclopenta[c]pyrrole-2(1H)-carboxylate], the IC50 stood at 60 nM.

In the case of `COC1COCCC1N[C@@H]1C[C@H]2CN(C(=O)OCCNC(C)=O)C[C@@]2(C(=O)N2CCc3ncc(C(F)(F)F)cc3C2)C1` (relative stereo) [Example 63, (3aR,5R,6aR)-2-Acetamidoethyl 5-(((3S*,4S*)-3-methoxytetrahydro-2H-pyran-4-yl)amino)-3a-(3-(trifluoromethyl)-5,6,7,8-tetrahydro-1,6-naphthyridine-6-carbonyl)hexahydrocyclopenta[c]pyrrole-2(1H)-carboxylate], the IC50 came out at 50 nM.

Take `COC1COCCC1N[C@@H]1C[C@H]2CN(C(=O)OCC(C)C)C[C@@]2(C(=O)N2CCc3ncc(C(F)(F)F)cc3C2)C1` (relative stereo) [Example 64, (3aR,5R,6aR)-Isobutyl 5-(((3S*,4S*)-3-methoxytetrahydro-2H-pyran-4-yl)amino)-3a-(3-(trifluoromethyl)-5,6,7,8-tetrahydro-1,6-naphthyridine-6-carbonyl)hexahydro-cyclopenta[c]pyrrole-2(1H)-carboxylate]: the IC50 was determined as 40 nM.

As for `COC1COCCC1N[C@@H]1C[C@H]2CN(C(C)=O)C[C@@]2(C(=O)N2CCc3ncc(C(F)(F)F)cc3C2)C1` (relative stereo) [Example 66, 1-((3aR,5R,6aR)-5-(((3S*,4S*)-3-Methoxytetrahydro-2H-pyran-4-yl)amino)-3a-(3-(trifluoromethyl)-5,6,7,8-tetrahydro-1,6-naphthyridine-6-carbonyl)hexahydrocyclopenta-[c]pyrrol-2(1H)-yl)ethanone], the 50% inhibitory concentration (IC50) was found to be 400 nM.

In the case of `COC1COCCC1N[C@@H]1C[C@H]2CN(C(=O)COc3ccccc3)C[C@@]2(C(=O)N2CCc3ncc(C(F)(F)F)cc3C2)C1` (relative stereo) [Example 68, 1-((3aR,5R,6aR)-5-(((3S*,4S*)-3-Methoxytetrahydro-2H-pyran-4-yl)amino)-3a-(3-(trifluoromethyl)-5,6,7,8-tetrahydro-1,6-naphthyridine-6-carbonyl)hexahydrocyclopenta-[c]pyrrol-2(1H)-yl)-2-phenoxyethanone], the IC50 turned out to be 130 nM.

As for `COC1COCCC1N[C@@H]1C[C@H]2CN(C(=O)c3ccccc3)C[C@@]2(C(=O)N2CCc3ncc(C(F)(F)F)cc3C2)C1` (relative stereo) [Example 69, ((3aR,5R,6aR)-2-Benzoyl-5-(((3S*,4S*)-3-methoxytetrahydro-2H-pyran-4-yl)amino)-octahydrocyclopenta[c]pyrrol-3a-yl)(3-(trifluoromethyl)-7,8-dihydro-1,6-naphthyridin-6(5H)-yl)methanone], the concentration for half-maximal inhibition (IC50) was 150 nM.

In the case of `COC1COCCC1N[C@@H]1C[C@H]2CN(C(=O)c3ncco3)C[C@@]2(C(=O)N2CCc3ncc(C(F)(F)F)cc3C2)C1` (relative stereo) [Example 70, ((3aR,5R,6aR)-5-(((3S*,4S*)-3-Methoxytetrahydro-2H-pyran-4-yl)amino)-2-(oxazole-2-carbonyl)octahydrocyclopenta[c]pyrrol-3a-yl)(3-(trifluoromethyl)-7,8-dihydro-1,6-naphthyridin-6(5H)-yl)methanone], the 50% inhibitory concentration (IC50) worked out at 80 nM.

On to `COC1COCCC1N[C@@H]1C[C@H]2CN(C(=O)c3ccno3)C[C@@]2(C(=O)N2CCc3ncc(C(F)(F)F)cc3C2)C1` (relative stereo) [Example 71, Isoxazol-5-yl((3aR,5R,6aR)-5-(((3S*,4S*)-3-methoxytetrahydro-2H-pyran-4-yl)amino)-3a-(3-(trifluoromethyl)-5,6,7,8-tetrahydro-1,6-naphthyridine-6-carbonyl)hexahydrocyclopenta-[c]pyrrol-2(1H)-yl)methanone], for which the IC50 came out at 160 nM.

As for `COC1COCCC1N[C@@H]1C[C@H]2CN(C(=O)c3cocn3)C[C@@]2(C(=O)N2CCc3ncc(C(F)(F)F)cc3C2)C1` (relative stereo) [Example 72, ((3aR,5R,6aR)-5-(((3S*,4S*)-3-Methoxytetrahydro-2H-pyran-4-yl)amino)-2-(oxazole-4-carbonyl)octahydrocyclopenta[c]pyrrol-3a-yl)(3-(trifluoromethyl)-7,8-dihydro-1,6-naphthyridin-6(5H)-yl)methanone], the IC50 was 30 nM.

Consider `C#CC(=O)N1C[C@@H]2C[C@@H](NC3CCOCC3OC)C[C@]2(C(=O)N2CCc3ncc(C(F)(F)F)cc3C2)C1` (relative stereo) [Example 73, 1-((3aR,5R,6aR)-5-(((3S*,4S*)-3-Methoxytetrahydro-2H-pyran-4-yl)amino)-3a-(3-(trifluoromethyl)-5,6,7,8-tetrahydro-1,6-naphthyridine-6-carbonyl)hexahydrocyclopenta-[c]pyrrol-2(1H)-yl)prop-2-yn-1-one], for which the half-maximal inhibitory concentration (IC50) is 360 nM.

Consider `COC1COCCC1N[C@@H]1C[C@H]2CN(C(=O)CNC(C)=O)C[C@@]2(C(=O)N2CCc3ncc(C(F)(F)F)cc3C2)C1` (relative stereo) [Example 75, N-(2-((3aR,5R,6aR)-5-(((3S*,4S*)-3-Methoxytetrahydro-2H-pyran-4-yl)amino)-3a-(3-(trifluoromethyl)-5,6,7,8-tetrahydro-1,6-naphthyridine-6-carbonyl)hexahydrocyclopenta-[c]pyrrol-2(1H)-yl)-2-oxoethyl)acetamide], for which the half-inhibitory concentration (IC50) was 170 nM.

For `COC1COCCC1N[C@@H]1C[C@H]2CN(C(=O)CN(C)C)C[C@@]2(C(=O)N2CCc3ncc(C(F)(F)F)cc3C2)C1` (relative stereo) [Example 76, 2-(Dimethylamino)-1-((3aR,5R,6aR)-5-(((3S*,4S*)-3-methoxytetrahydro-2H-pyran-4-yl)amino)-3a-(3-(trifluoromethyl)-5,6,7,8-tetrahydro-1,6-naphthyridine-6-carbonyl)hexahydrocyclopenta[c]pyrrol-2(1H)-yl)ethanone], the IC50 came to 160 nM.
